This note sets out measurements from patent US11921116B2, “Enigma and CDH18 as companion diagnostics for CDK4 inhibitors” (Memorial Sloan Kettering Cancer Center, priority 2016, dated 2024).

Format in all cases: cell-based
Experiment [1] deals with non-responder cell line LS8107. Briefly: Senescence of LS8107 cells after CDK4 inhibition (SA-β-gal positive cells, ATRX foci).
The subject of experiment [2] is MDM2 protein levels in LS8107 cells. Briefly: MDM2 protein levels in LS8107 cells after CDK4 inhibition. The source says:
The short hairpins used are as follows: TRCN0000161061: […] (SEQ ID NO: 4); and TRCN0000166638 (“EN638”): […] (SEQ ID NO: 5).

For experiment [3], the system named is MDM2 turnover in LS8107 cells. Kind of experiment: Turnover (degradation) of MDM2 in LS8107 cells after CDK4 inhibition. The note with it: LS8107 cells with knockdown of Enigma, addition of PD0332991. As for the experimental part: To determine if Enigma affects MDM2 protein levels post-translationally, the turnover of MDM2 was analyzed. […] To determine whether HAUSP and Enigma are the important regulators of MDM2 protein levels in response to treatment with a CDK4 inhibitor, concomitant knockdown of HAUSP and Enigma was performed.

Where [4] appears, read: LS8107 cells with Enigma knocked down (shRNA), treated with PD0332991.
The mark [5] stands for this setting: non-responder LS8107 cells, PD0332991 alone (no knockdown).

Entries after “also recorded” stand apart in the source; their conditions may differ.

For `CC(=O)c1c(C)c2cnc(Nc3ccc(N4CCNCC4)cn3)nc2n(C2CCCC2)c1=O` [PD0332991], the senescence entry in experiment [1] (setting [4]) is “the cells entered senescence”. Further, the “senescence as determined by the number of SA-β-gal positive cells” value in experiment [1] (setting [5]) was “do not undergo senescence; also recorded: insufficient to induce senescence”. The MDM2 protein levels result in experiment [2] (setting [4]) was “reduction in MDM2 protein levels”; in experiment [2] (setting [5]), “do not reduce their MDM2 protein levels”. Moreover, the “turnover of MDM2” value in experiment [3] is reported as “increased the turnover of MDM2”.
